According to patent US12605330B2, “Screening method for offensive odor-suppressing material” (Takasago International Corporation, priority 2019, dated 2026):

Assays:
[1] = biological target: T1, human olfactory receptor OR4Q3 (Homo sapiens, UniProt Q8NH05); assay: Luciferase reporter gene assay, response of olfactory receptor OR4Q3 to odorous substance; assay type: cell-based; details: HEK293T cells expressing OR4Q3, various concentrations, 3 hours stimulation; FIGS. 2, 4, 5, 6
T1 construct: N-terminal 20 amino acid residues of bovine rhodopsin (Rho tag); expressed in transfected cells; host or cells: HEK293T cells, pME18S expression vector, co-transfected with RTP1S vector and luciferase reporters
T1 sequence (Q8NH05 1-313): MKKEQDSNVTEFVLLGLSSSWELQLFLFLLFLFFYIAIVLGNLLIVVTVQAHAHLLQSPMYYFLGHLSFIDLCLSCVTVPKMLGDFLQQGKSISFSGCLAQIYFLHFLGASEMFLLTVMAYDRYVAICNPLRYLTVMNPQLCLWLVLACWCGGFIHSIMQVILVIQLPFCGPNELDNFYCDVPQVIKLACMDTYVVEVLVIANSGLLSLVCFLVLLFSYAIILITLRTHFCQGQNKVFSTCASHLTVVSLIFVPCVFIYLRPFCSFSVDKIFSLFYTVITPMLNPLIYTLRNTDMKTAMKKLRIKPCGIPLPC
Protocol: (§1) Human olfactory receptor genes were obtained by PCR cloning with Human Genomic DNA: Female (Promega) on the basis of their sequence information registered in GenBank. Into pME18S vectors, the N-terminal 20 amino acid residues of bovine rhodopsin were integrated and the resulting human olfactory receptor genes were integrated respectively downstream thereof to obtain human olfactory receptor gene expression vectors.
(§2) Each human olfactory receptor gene expression vector (0.05 μg), RTP1S vector (0.01 μg), firefly luciferase vector pGL4.29 containing a cAMP response element promoter (Promega, 0.01 μg) and Renilla luciferase vector pGL4.74 containing a thymidine kinase promoter (Promega, 0.005 μg) were dissolved in 10 μL of Opti-MEMI (gibco) to give a gene solution (for one well). HEK293T cells were seeded in 100 μL volumes into 96-well plates (Biocoat, Corning) at a cell density reaching confluence after 24 hours, and the gene solutions were added to the respective wells to cause gene transfer into the cells by lipofection techniques in accordance with the usage of Lipofectamine 3000, followed by culture at 37° C. under a 5% carbon dioxide atmosphere for 24 hours.
(§3) After removal of the culture solutions, an odorous substance serving as an analyte, which had been prepared at a given concentration with CD293 (gibco) medium (supplemented with […] L-glutamine), was added in 50 μL volumes to stimulate the cells for 3 hours, followed by luciferase activity measurement in accordance with the usage of a Dual-Luciferase Reporter Assay System (Promega). The response intensity of each olfactory receptor polypeptide was expressed as a fold increase value, which was determined by dividing the luciferase activity generated upon stimulation with the odorous substance by the luciferase activity generated in a test system not containing the odorous substance.
(§4) The cells engineered to express human olfactory receptors OR2C1 and OR4Q3 were used to measure the response of these receptors to various concentrations of 1-octen-3-one by the luciferase reporter gene assay.

[2] = tested on: cells not engineered to express the olfactory receptors; assay: Mock test, luciferase reporter gene assay; assay type: cell-based, human
Protocol: as §2, §3, §4

[3] = biological target: T2, human olfactory receptor OR2C1 (Homo sapiens, UniProt O95371); assay: Luciferase reporter gene assay, response of olfactory receptor OR2C1 to odorous substance; assay type: cell-based; details: HEK293T cells expressing OR2C1, various concentrations, 3 hours stimulation; FIGS. 1 and 3
T2 construct: N-terminal 20 amino acid residues of bovine rhodopsin (Rho tag); expressed in transfected cells; host or cells: HEK293T cells, pME18S expression vector, co-transfected with RTP1S vector and luciferase reporters
T2 sequence (O95371 1-312): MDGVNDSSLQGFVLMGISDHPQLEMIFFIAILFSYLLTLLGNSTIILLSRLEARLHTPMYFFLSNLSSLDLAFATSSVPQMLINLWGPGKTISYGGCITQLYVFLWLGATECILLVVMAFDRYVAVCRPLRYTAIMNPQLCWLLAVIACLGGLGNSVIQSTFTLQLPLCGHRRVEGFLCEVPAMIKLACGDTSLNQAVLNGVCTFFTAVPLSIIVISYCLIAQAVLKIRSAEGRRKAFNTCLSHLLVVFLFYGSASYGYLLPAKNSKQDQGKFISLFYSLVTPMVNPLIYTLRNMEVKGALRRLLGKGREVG
Source text: as §1, with “vectors. […]” for “vectors.”
as §3, with “substance. […]” for “substance.”

OR2C1 = biological target: T3, OR2C1 (Homo sapiens, UniProt O95371); assay: Suppressive effect of offensive odor-suppressing materials on the response of OR2C1 (luciferase reporter gene assay); assay type: cell-based; details: mixed at various concentrations with 30 μM 1-octen-3-one; FIGS. 7 and 8
T3 construct: N-terminal 20 amino acid residues of bovine rhodopsin (Rho tag); expressed in transfected cells; host or cells: HEK293T cells, pME18S expression vector, co-transfected with RTP1S vector and luciferase reporters
T3 sequence (O95371 1-312): T2 sequence (O95371 1-312)
Source text: as §1, with “vectors. […]” for “vectors.”
as §3, with “substance. […]” for “substance.”

[4] = background art; cited from earlier work
olfactory receptor OR2W1 = biological target: T4, olfactory receptor OR2W1 (Homo sapiens, UniProt Q9Y3N9); details: background art; cited from earlier work
T4 sequence (Q9Y3N9 1-320): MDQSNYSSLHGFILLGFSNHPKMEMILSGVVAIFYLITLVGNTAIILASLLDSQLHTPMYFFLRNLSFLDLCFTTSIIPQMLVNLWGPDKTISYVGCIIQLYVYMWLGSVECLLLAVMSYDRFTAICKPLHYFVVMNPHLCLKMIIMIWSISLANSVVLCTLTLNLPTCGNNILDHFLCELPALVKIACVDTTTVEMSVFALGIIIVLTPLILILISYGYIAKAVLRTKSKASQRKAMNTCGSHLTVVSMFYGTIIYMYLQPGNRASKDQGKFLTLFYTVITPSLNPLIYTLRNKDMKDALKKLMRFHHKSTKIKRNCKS

Row | SMILES | response of OR4Q3 to the odorous substance (fold increase value) [1] | response in Mock test [2] | also measured
1 | C=CC(O)CC=CCC (stereo not drawn) [1,5-octadien-3-ol] | respond to 1,5-octadien-3-ol in a concentration-dependent manner | no response was observed | –
2 | C=CC(=O)CC=CCC [1,5-octadien-3-one] | respond to 1,5-octadien-3-one in a concentration-dependent manner | no response was observed | response of OR2C1 to the odorous substance (fold increase value) [3]: respond to 1,5-octadien-3-one in a concentration-dependent manner
3 | CCCC(O)CCC1C(C)CCCC1(C)C (stereo not drawn) [1-(2,2,6-trimethylcyclohexyl)hexan-3-ol] | – | – | suppressive effect on the response of OR2C1 to 1-octen-3-one (ratio of fold increase value, without material set to 100) (OR2C1): reducing the response of OR2C1 to 1-octen-3-one in a concentration-dependent manner
4 | C=CC(O)CCCCC (stereo not drawn) [1-octen-3-ol] | respond to 1-octen-3-ol in a concentration-dependent manner | no response was observed | –
5 | C=CC(=O)CCCCC [1-octen-3-one] | respond to 1-octen-3-one in a concentration-dependent manner | no response was observed | response of OR2C1 to the odorous substance (fold increase value) [3]: respond to 1-octen-3-one in a concentration-dependent manner
6 | CC(=CCC1CC=C(C)C1(C)C)CO (stereo not drawn) [2-methyl-4-(2,2,3-trimethylcyclopent-3-enyl)but-2-en-1-ol] | – | – | suppressive effect on the response of OR2C1 to 1-octen-3-one (ratio of fold increase value, without material set to 100) (OR2C1): reducing the response of OR2C1 to 1-octen-3-one in a concentration-dependent manner
7 | CC(C)c1cccc(C(C)CC=O)c1 (stereo not drawn) [florhydral] | – | – | suppression of offensive odor induced by hexanoic acid in sensory testing [4]: suppress an offensive odor induced by hexanoic acid; inhibition of the activity of OR2W1 (olfactory receptor OR2W1): inhibiting the activity of this OR2W1
8 | CCCCCC(=O)O [hexanoic acid] | – | – | response of OR2W1 to the odorous substance (olfactory receptor OR2W1): responds to hexanoic acid
